Experimental data from patent US8106055B2, “Substituted amide compounds” (Gruenenthal GmbH, priority 2007, dated 2012).

Experiments:
[1] = molecular target: T1, serotonin (5-HT) reuptake (Rattus norvegicus, UniProt P31652); assay: Inhibition of serotonin (5HT) reuptake in synaptosomes from rat brain; type: biochemical; settings: test concentration of 10 μM
T1 construct: synaptosomes are freshly isolated from areas of the rat brain; from tissue; host or cells: rat brain synaptosomes (P2 fraction)
T1 sequence (P31652 whole entry): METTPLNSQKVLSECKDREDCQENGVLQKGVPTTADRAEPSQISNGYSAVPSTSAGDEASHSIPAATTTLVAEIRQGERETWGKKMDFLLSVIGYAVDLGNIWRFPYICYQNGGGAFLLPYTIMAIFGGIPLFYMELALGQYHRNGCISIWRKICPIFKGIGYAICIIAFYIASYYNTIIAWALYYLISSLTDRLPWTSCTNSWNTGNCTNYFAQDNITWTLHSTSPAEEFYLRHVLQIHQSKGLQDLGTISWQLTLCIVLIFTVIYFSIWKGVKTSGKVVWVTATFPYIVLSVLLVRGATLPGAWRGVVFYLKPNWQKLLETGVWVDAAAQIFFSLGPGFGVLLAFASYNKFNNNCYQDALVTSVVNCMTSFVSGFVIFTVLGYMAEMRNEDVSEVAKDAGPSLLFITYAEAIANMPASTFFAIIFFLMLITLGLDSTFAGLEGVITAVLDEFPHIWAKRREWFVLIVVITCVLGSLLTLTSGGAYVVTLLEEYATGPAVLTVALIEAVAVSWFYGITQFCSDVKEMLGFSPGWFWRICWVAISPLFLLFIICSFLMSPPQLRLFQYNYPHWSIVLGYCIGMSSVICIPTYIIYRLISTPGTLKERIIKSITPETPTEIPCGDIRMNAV
Method in brief: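 Compounds screened at 10 μM and reported as percent inhibition of serotonin uptake. Uptake measured in a freshly prepared P2 synaptosomal fraction from rat brain.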

[2] = molecular target: T2, human bradykinin 1 receptor (B1R) (Homo sapiens, UniProt P46663); assay: Functional investigation on the human bradykinin 1 receptor (B1R), Ca2+ FLIPR assay in CHO K1 hB1R cells; type: cell-based; settings: B1R antagonism human; test substance 10 μM; Ca2+ FLIPR, CHO K1 hB1R cells
T2 construct: expressed in transfected cells; host or cells: CHO K1 cells
T2 sequence (P46663 1-353): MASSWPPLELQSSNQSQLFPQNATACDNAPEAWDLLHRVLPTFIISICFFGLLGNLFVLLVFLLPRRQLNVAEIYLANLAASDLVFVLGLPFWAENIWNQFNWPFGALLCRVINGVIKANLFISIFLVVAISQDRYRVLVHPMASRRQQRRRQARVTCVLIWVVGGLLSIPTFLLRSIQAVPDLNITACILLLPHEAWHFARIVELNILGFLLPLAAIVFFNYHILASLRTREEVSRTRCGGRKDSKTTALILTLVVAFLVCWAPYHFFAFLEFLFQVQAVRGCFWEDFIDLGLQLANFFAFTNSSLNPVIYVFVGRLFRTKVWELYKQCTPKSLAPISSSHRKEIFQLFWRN
Method in brief: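 Peak Ca2+-dependent fluorescence in B1R-transfected CHO K1 cells measures antagonism of an EC80 agonist challenge given 10-20 min after compound. Agonist is Lys-Des-Arg9-bradykinin for human, Des-Arg9-bradykinin for rat receptor.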

| Compound | 5-HT (inhibition of reuptake of serotonin, % inhibition) [1] [%] | B1R Ant. h [10 μM] % Inhibition [2] [%] |
| --- | --- | --- |
| COc1ccc(S(=O)(=O)N2CCCCC2COCC(=O)NC2CCC(C(c3ccc(F)cc3)N(C)C)CC2)cc1 (stereo not drawn) [Example 450] | 90 | 40 |
| CN(C)C(CCc1ccccc1)C1CCC(CNC(=O)COC2CCCCC2N(C)S(=O)(=O)c2ccc(Cl)c(Cl)c2)CC1 (stereo not drawn) [Example 451] | 84 | 87 |
| Cc1ccc(S(=O)(=O)N(C)CCOCC(=O)NCC2CCC(C(CCc3ccccc3)N(C)C)CC2)cc1 (stereo not drawn) [Example 452] | 88 | 37 |
| COc1cc(C)c(S(=O)(=O)N2CCC(OCC(=O)NC3CCC(C(c4ccc(F)cc4)N(C)C)CC3)CC2)c(C)c1C (stereo not drawn) [Example 454] | 95 | 45 |
| CN(C)C(c1ccc(F)cc1)C1CCC(CCNC(=O)COC2CCN(S(=O)(=O)c3ccc(Cl)cc3Cl)C2)CC1 (stereo not drawn) [Example 456] | 88 | 80 |
| Cc1ccc(S(=O)(=O)N(C)CCOCC(=O)NCCC2CCC(C(c3ccc(F)cc3)N(C)C)CC2)cc1 (stereo not drawn) [Example 457] | 90 | 14 |
| COc1cc(C)c(S(=O)(=O)N(C)CCOCC(=O)NCC2CCC(C(c3ccc(F)cc3)N(C)C)CC2)c(C)c1 (stereo not drawn) [Example 458] | 85 | 103 |
| CN(C)C(c1ccc(Cl)cc1)C1CCC(CNC(=O)COCCN(C)S(=O)(=O)c2ccc(Cl)cc2Cl)CC1 (stereo not drawn) [Example 459] | 68 | 29 |
| COc1ccc(S(=O)(=O)N(C)CCOCC(=O)NCCC2CCC(C(c3ccc(Cl)cc3)N(C)C)CC2)cc1 (stereo not drawn) [Example 460] | 86 | 50 |
| COc1ccc(S(=O)(=O)N2CCCC2COCC(=O)NC2CCC(C(c3ccc(F)cc3)N(C)C)CC2)cc1 (stereo not drawn) [Example 461] | 94 | 13 |
| COc1ccc(S(=O)(=O)N2CCCCC2COCC(=O)NCCC2CCC(C(c3ccc(F)cc3)N(C)C)CC2)cc1OC (stereo not drawn) [Example 462] | 90 | −8 |
| CN(C)C(c1ccc(F)cc1)C1CCC(NC(=O)COC2CCN(S(=O)(=O)c3ccccc3)C2)CC1 (stereo not drawn) [Example 463] | 97 | −7 |
| CN(C)C(c1ccc(F)cc1)C1CCC(CCNC(=O)COC2CCN(S(=O)(=O)c3ccc(Cl)cc3)C2)CC1 (stereo not drawn) [Example 464] | 88 | −2 |
| CN(C)C(c1ccc(F)cc1)C1CCC(CCNC(=O)COC2CCN(S(=O)(=O)c3cccc(C(F)(F)F)c3)C2)CC1 (stereo not drawn) [Example 466] | 89 | 7 |
| COc1cc(C)c(S(=O)(=O)N2CCC(OCC(=O)NCCC3CCC(C(c4ccc(F)cc4)N(C)C)CC3)C2)c(C)c1C (stereo not drawn) [Example 467] | 95 | 67 |
| COc1cc(C)c(S(=O)(=O)N2CCCC(OCC(=O)NCCC3CCC(C(c4ccc(F)cc4)N(C)C)CC3)C2)c(C)c1C (stereo not drawn) [Example 468] | 95 | 50 |
| COc1ccc(S(=O)(=O)N2CCCCC2COCC(=O)NCC2CCC(C(CCc3ccccc3)N(C)C)CC2)cc1 (stereo not drawn) [Example 469] | 87 | 91 |
| CN(C)C(c1ccc(F)cc1)C1CCC(CCNC(=O)COCCC2CCN(S(=O)(=O)c3ccccc3)CC2)CC1 (stereo not drawn) [Example 470] | 82 | 4 |
| CN(C)C(c1ccc(Cl)cc1)C1CCC(CNC(=O)COC2CCN(S(=O)(=O)c3ccccc3)CC2)CC1 (stereo not drawn) [Example 471] | 94 | 7 |
| COc1cc(C)c(S(=O)(=O)N2CCC(OCC(=O)NCCC3CCC(C(c4ccc(Cl)cc4)N(C)C)CC3)CC2)c(C)c1C (stereo not drawn) [Example 472] | 95 | 1 |
| COc1cc(C)c(S(=O)(=O)N(CCOCC(=O)NCC2CCC(C(c3ccc(Cl)cc3)N(C)C)CC2)Cc2ccccc2)c(C)c1 (stereo not drawn) [Example 473] | 64 | 52 |

| Compound | 5-HT (inhibition of reuptake of serotonin, % inhibition) [1] [%] | B1R Ant. h [10 μM] % Inhibition [2] [%] |
| --- | --- | --- |
| COc1ccc(S(=O)(=O)N2CCCCC2COCC(=O)NCCC2CCC(C(c3ccc(Cl)cc3)N(C)C)CC2)c(OC)c1 (stereo not drawn) [Example 474] | 88 | 17 |
| Cc1cc(C)c(S(=O)(=O)N2CCC(OCC(=O)NCC3CCC(C(CCc4ccccc4)N(C)C)CC3)C2)c(C)c1 (stereo not drawn) [Example 475] | 87 | 103 |
| CN(C)C(c1cccc(F)c1)C1CCC(CNC(=O)COC2CCN(S(=O)(=O)c3ccccc3)CC2)CC1 (stereo not drawn) [Example 477] | 95 | −16 |
| CN(C)C(c1ccc(F)cc1)C1CCC(NC(=O)COCC2CCCN(S(=O)(=O)c3ccccc3)C2)CC1 (stereo not drawn) [Example 478] | 97 | −3 |
| CN(C)C(c1ccc(F)cc1)C1CCC(CCNC(=O)COCC2CCCN(S(=O)(=O)c3ccccc3)C2)CC1 (stereo not drawn) [Example 479] | 97 | 18 |
| COc1cc(C)c(S(=O)(=O)N2CCC(OCC(=O)NCCC3CCC(C(c4ccc(F)cc4)N(C)C)CC3)CC2)c(C)c1C (stereo not drawn) [Example 480] | 98 | 23 |
| COc1cc(C)c(S(=O)(=O)N2CCC(CCOCC(=O)NCC3CCC(C(c4ccc(F)cc4)N(C)C)CC3)CC2)c(C)c1C (stereo not drawn) [Example 481] | 88 | 9 |
| COc1ccc(S(=O)(=O)N(C)CCOCC(=O)NCCC2CCC(C(c3ccc(F)cc3)N(C)C)CC2)cc1OC (stereo not drawn) [Example 484] | 96 | −21 |
| COc1cc(C)c(S(=O)(=O)N2CCCC(OCC(=O)NCCC3CCC(C(c4ccc(Cl)cc4)N(C)C)CC3)C2)c(C)c1C (stereo not drawn) [Example 485] | 92 | 5 |
| CN(C)C(c1ccc(F)cc1)C1CCC(CCNC(=O)COCCN(C)S(=O)(=O)c2ccc(F)cc2)CC1 (stereo not drawn) [Example 487] | 101 | 9 |
| CN(C)C(c1ccc(F)cc1)C1CCC(CNC(=O)COC2CCCN(S(=O)(=O)c3ccccc3)C2)CC1 (stereo not drawn) [Example 488] | 94 | 4 |
| CN(C)C(c1ccc(F)cc1)C1CCC(CCNC(=O)COCCN(Cc2ccccc2)S(=O)(=O)c2ccccc2)CC1 (stereo not drawn) [Example 489] | 97 | 34 |
| Cc1cc(C)c(S(=O)(=O)N(C)CCOCC(=O)NC2CCC(C(c3ccc(F)cc3)N(C)C)CC2)c(C)c1 (stereo not drawn) [Example 490] | 86 | 45 |
| Cc1ccc(S(=O)(=O)N2CCC(OCC(=O)NCCC3CCC(C(c4ccc(F)cc4)N(C)C)CC3)C2)cc1 (stereo not drawn) [Example 491] | 90 | 5 |
| COc1cc(C)c(S(=O)(=O)N2CCC(OCC(=O)NCCC3CCC(C(c4ccc(Cl)cc4)N(C)C)CC3)C2)c(C)c1 (stereo not drawn) [Example 492] | 97 | 105 |
| CN(C)C(c1ccc(F)cc1)C1CCC(CCNC(=O)COCCN2CCN(S(=O)(=O)c3ccccc3)CC2)CC1 (stereo not drawn) [Example 493] | 96 | −13 |
| COc1cc(C)c(S(=O)(=O)N(CCOCC(=O)NCC2CCC(C(c3ccc(F)cc3)N(C)C)CC2)Cc2ccccc2)c(C)c1 (stereo not drawn) [Example 494] | 89 | 86 |
| CN(C)C(CCc1ccccc1)C1CCC(CNC(=O)COC2CCN(S(=O)(=O)c3ccc(Cl)cc3Cl)C2)CC1 (stereo not drawn) [Example 496] | 89 | 98 |
| COc1ccc(S(=O)(=O)N2CCC(OCC(=O)NCC3CCC(C(c4ccc(F)cc4)N(C)C)CC3)C2)cc1OC (stereo not drawn) [Example 497] | 86 | −4 |
| COc1cc(C)c(S(=O)(=O)N2CCC(OCC(=O)NCC3CCC(C(c4ccc(Cl)cc4)N(C)C)CC3)CC2)c(C)c1C (stereo not drawn) [Example 498] | 88 | 17 |
| COc1cc(C)c(S(=O)(=O)N2CCC(CCOCC(=O)NCC3CCC(C(c4ccc(Cl)cc4)N(C)C)CC3)CC2)c(C)c1C (stereo not drawn) [Example 499] | 75 | 25 |
